# Test results reported in patent US20050009787A1, “Micronutrient phosphates as dietary and health supplements” (priority 2001, published 2005).
# Columns and labels:
# [1] = cited from earlier work
# [2] = Bioavailability of tocopheryl phosphate in rats (tocopheryl phosphate in liver, ES/MS); format: in vivo, male Sprague-Dawley rats; conditions: rat
# Experimental: The rats were dosed using the following protocol: • (a) A single dose of the compound was administered to male Sprague-Dawley rats (see Table 1). Oral gavage was with an 18 g gavage needle and 1 ml syringe. Intravenous was with a 26 g hypodermic needle and 1 ml syringe. • (b) Twenty four hours after administrations, the rats were anaesthetized with 60 mg/kg of Nembutal (an anaesthetic from Meril, USA) by intra peritoneal injection. • (c) Once the rats were under deep anaesthesia, a sample of blood was taken from the tail vein, and the femoral vein was exposed and injected with 500 units of heparin. The abdominal cavity was opened and the rat perfused with saline. The liver, heart, epidydimal fat pad, hind-leg muscle and brain was removed and frozen in liquid nitrogen.
# The livers were extracted according to the following method: • (a) Homogenise 1 g of liver in 10 ml dichloromethane. • (b) Add 0.1 mg of ditocopheryl phosphate (1 mg/ml in 50% tetrahydrofuran) as an internal standard. • (c) Mix using homogeniser and centrifuge sample. • (d) Remove and evaporate dichloromethane. • (e) Add 9 ml of KOH (2M) and stir for one hour at room temperature. • (f) Add 10 ml hexane, shake and remove hexane (upper) layer. • (g) Add 10 ml HCl (2M) to the 9 ml KOH (2M) solution. • (h) Add 10 ml hexane, shake and remove hexane layer. • (i) Evaporate hexane layer to dryness.
# The extracts were analysed and quantitated for TP (μg) content by electrospray mass spectrometry using the established calibration curve (tocopheryl phosphate vs ditocopheryl phosphate).
# ES/MS analysis conditions: Sample was dissolved in 1 ml tetrahydrofuran (THF) containing 1% ammonia, 20 μl was injected into the sample loop. The sample was eluted with THF:water (9:1) 20 μl/min. Mass spectrometric analysis was conducted in negative ion mode with cone voltage of 40V using Micromass Platform.
# [3] = Stability of tocopheryl phosphate arginine complex in a beverage (pH, turbidity, degradation); format: physicochemical
# Experimental: Four ml was added to each 500 ml bottle using sterile conditions. Three treatment groups were used for each drink: 4° C., 37° C. and room temperature (RT). The drinks were monitored for bacterial growth and contamination on a weekly basis, both visually, and by plating a sample onto LB agar plates, which were grown for 48 hours at 37° C.
compound,measurement,setting,value
"COC1=C(OC)C(=O)C(C/C=C(\C)CC/C=C(\C)CC/C=C(\C)CC/C=C(\C)CC/C=C(\C)CC/C=C(\C)CC/C=C(\C)CC/C=C(\C)CC/C=C(\C)CCC=C(C)C)=C(C)C1=O [CoQ10, ubiquinone]",destruction of CoQ10 by boiling,[1]; boiling,no detectable destruction
same,destruction of CoQ10 by frying,[1]; frying,14-32%
"CC(=O)Oc1c(C)c(C)c2c(c1C)CCC(C)(CCC[C@H](C)CCC[C@H](C)CCCC(C)C)O2 (some centres unmarked) [Tocopheryl acetate, reference compound]",amount of tocopheryl phosphate present compared to the controls,[2]; oral administration,did not result in a significant increase
Tocopheryl phosphate,amount of tocopheryl phosphate detected in the livers,[2]; enteric coating preparation or oral solution,increase
same,amount of tocopheryl phosphate present in the liver after 24 hours,"[2]; intravenous administration, vs controls",significant increase
same,Tocopheryl phosphate in liver,"[2]; intravenous, 10 mg/kg single dose, 24 h after administration",24.0 µg/g
same,Tocopheryl phosphate in liver,"[2]; intravenous, 30 mg/kg single dose, 24 h",28.0 µg/g
same,Tocopheryl phosphate in liver,"[2]; oral (enteric coated), 30 mg/kg single dose, 24 h",19.3 µg/g
same,Tocopheryl phosphate in liver,"[2]; oral, 10 mg/kg single dose, 24 h",19.2 µg/g
same,Tocopheryl phosphate in liver,"[2]; oral, 30 mg/kg single dose, 24 h",18.4 µg/g
tocopheryl phosphate arginine complex,Turbidity,"[3]; blue Musashi drink with TP, 4° C.",12.54 NTU
same,Turbidity,"[3]; blue Musashi drink with TP, 37° C.",28.55 NTU
same,Turbidity,"[3]; blue Musashi drink with TP, RT",24.05 NTU
same,amount of degradation of the complex,"[3]; in acidic drinks, at the pH required for biological stability",negligible
same,Turbidity,"[3]; orange Musashi drink with TP, 4° C.",232.0 NTU
same,Turbidity,"[3]; orange Musashi drink with TP, 37° C.",220.0 NTU
same,Turbidity,"[3]; orange Musashi drink with TP, RT",224.0 NTU
